Test results: patent US20250101026A1, “Functionalized Allopurinol Derivatives for Treatment of Alzheimer’s Disease” (BOARD OF REGENTS OF THE UNIVERSITY OF NEBRASKA, priority 2022, published 2025)
Entries after “also recorded” stand apart in the source; their conditions may differ.

Columns and labels:
[1] = tested on: 5XFAD primary cortical neurons; experiment: Mitochondrial morphology (TOM20 staining) in 5XFAD primary cortical neurons; assay type: cell-based, mouse; conditions: 10 and 50 μM, 48 hours; compared with no treatment control 5XFAD neurons
Description: Immunofluorescent Microscopy and Image Analysis. Isolated primary mouse cortical neurons from the 5XFAD Alzheimer's Disease mouse model were cultured for 10 days and then treated with 14b at 10 or 50 μM for 48 hours. Primary neurons growing on the coverslips were washed three times with PBS and fixed with 4% PFA. After permeabilization with 0.5% Triton™ X-100 for 15 minutes, coverslips were blocked with 10% NGS for 30 min. Coverslips were rinsed with 1% NGS in PBS and incubated with anti-TOM20 antibody at 4° C. overnight. Coverslips were then rinsed with 1% NGS, blocked in 10% NGS for 10 min, and rinsed with 1% NGS. Coverslips were incubated with species-specific AlexaFluor® 488-conjugated Abs diluted in 1% NGS for 2 h at room temperature in the dark. Coverslips were rinsed 3× with PBS. Excess liquid was removed, and slides were coverslipped using Fluoromount-G™ mounting medium. Slides were imaged using a confocal microscope with 63x/1.4NA Oil objective. The acquired images were processed for background subtraction in Zen software. Mitochondrial length was calculated from single plane images. Mitochondrial length was defined as the Feret maximum.
To obtain proof-of-concept protective effect of 14b in an ex vivo mouse model of AD we isolated primary mouse cortical neurons from the 5XFAD Alzheimer's model mouse (FIGS. 6A-6C). […]

[2] = tested on: SH-SY5Y cells; experiment: Mitochondrial Stress Test in Aβ-treated SH-SY5Y cells (extracellular flux analyzer); assay type: cell-based, human
Description: Mitochondrial Stress Test. […] After 48 hours, media was replaced with assay medium consisting of XF Base Medium supplemented with 10 mM glucose, 10 mM pyruvic acid, and 1 mM L-glutamine. Subsequently, the analysis of mitochondrial oxygen consumption rate (OCR) was performed in a flux analyzer. The OCR values were obtained both during baseline (prior to addition of any Mito Stress Test substances), and after the addition of […], 2 μM FCCP and 0.5 μM rotenone+0.5 μM antimycin A, respectively. Prior to analysis, data were corrected by withdrawing non-mitochondrial respiration (measured after the injection of rotenone and antimycin A) from all measured OCR values. After the experiment, cells were lysed using RIPA buffer and protease inhibitor cocktail, then proteins were quantified via BCA assay. Results were normalized to protein concentration of each well to its OCR value.

[3] = tested on: SH-SY5Y cells; experiment: Aβ-induced toxicity in SH-SY5Y cells, lactate dehydrogenase (LDH) release assay; assay type: cell-based, human; conditions: 1 μM, pretreated 24 hrs, then 25 μM Aβ 48 hrs
Description: Cell Culture. The cell line SH-SY5Y was cultured in DMEM/F12 media supplemented with 10% fetal bovine serum, 1% penicillin-streptomycin and maintained as monolayer cultures in a humidified atmosphere containing 5% CO2 at 37° C.^42 All cell lines were authenticated via short tandem repeat analysis and tested for mycoplasma using the a commercial mycoplasma detection kit as per the manufacturer's instructions, showing no contamination. Where indicated, cells were also cultured in DMEM/low glucose media. All compounds were diluted to 20 mM solution in DMSO and were serially diluted in cell culture media for cell treatments to a final concentration range of 0.01 to 100 μM, maintaining the final DMSO concentration at less than 1%. Positive control compound HupA was serially diluted in a similar fashion as the synthesized compounds.
Amyloid Preparation. The peptide Aβ1-42, referred to as “Aβ”, was obtained from a commercial source. The oligomers of Aβ were prepared using an established method,^43 Aβ peptide was resuspended in 0.5 mM NaOH at a concentration of […] and stored at −80° C. For use in cell cultures, the stock solution was incubated at 37° C. for 5-7 days. Before use, the peptide was diluted to 25 μM in DMEM/low glucose media.
Cell Viability Assays. […] Cell viability was measured after 48 hours using commercial MTS assay or lactate dehydrogenase (LDH) cytotoxicity assay. […]

O=C(C(c1ccccc1)n1cnc2[nH]ncc2c1=S)N1CCC(O)CC1 (stereo not drawn) [Compound 14b, 1-(4-hydroxypiperidin-1-yl)-2-phenyl-2-(4-thioxo-1,4-dihydro-5H-pyrazolo[3,4-d]pyrimidin-5-yl)ethan-1-one]
mitochondrial aspect ratio [1]: significantly rescued
mitochondrial length [1]: significantly rescued
basal respiration: restored share of the cell respiration reduced by Aβ ([2]; 1 μM pretreatment 24 hrs, then 25 μM Aβ 48 hrs): 46%
proton leak, ATP production and maximal respiration: restoration of mitochondrial function lost by Aβ ([2]; 1 μM pretreatment, then 25 μM Aβ): trend to restore; also recorded: trend to rescue
basal respiration, rescue of Aβ-mediated dysfunction ([2]; SH-SY5Y cells): significantly rescuing
LDH release compared with Aβ treatment alone [3]: significantly reducing LDH release; also recorded: significantly rescued
